Results: patent US10807966B2, “Heterocyclic compounds as kinase inhibitors” (TRANSLATIONAL DRUG DEVELOPMENT, LLC, priority 2016, dated 2020)

Key:
ROCK1 = ROCK1 (Homo sapiens (Human), UniProt Q13464); experiment: ROCK1 kinase inhibition assay (peptide phosphorylation, LabChip 3000); format: biochemical; settings: 5 μM ATP, 3 nM ROCK1, 3 hours at 25° C.
Experimental: (§1) The peptide is >98% purity by Capillary Electrophoresis. The peptide is phosphorylated by the protein kinase ROCK1 or ROCK2. The ROCK1 or ROCK2 enzyme, substrate, and cofactors (ATP and Mg^2+) are combined in a well of a microtiter plate and incubated for 3 hours at 25° C. At the end of the incubation, the reaction is quenched by the addition of an EDTA-containing buffer. The substrate and product are separated and quantified electrophoretically using the microfluidic-based LABCHIP® 3000 Drug Discovery System from Caliper Life Sciences (Hopkinton, Mass.).
(§2) The components of the assay mixture are:
(§3) 10 μM Sodium Orthovanadate
(§4) 10 μM Beta-Glycerophosphate
(§5) 5 μM ATP (for ROCK1) or 7 μM ATP (for ROCK2)
(§6) 3 nM ROCK1 or 2.5 nM ROCK2 enzyme
Substrate and product peptides present in each sample are separated electrophoretically using the LABCHIP® 3000 capillary electrophoresis instrument. […] Change in the relative fluorescence intensity of the substrate and product peaks is the parameter measured reflecting enzyme activity. Capillary electrophoregramms (RDA acquisition files) are analyzed using HTS Well Analyzer software (Caliper Life Sciences, Hopkinton, Mass.). The kinase activity in each sample is determined as the product to sum ratio (PSR): P/(S+P), where P is the peak height of the product peptide and S is the peak height of the substrate peptide. For each compound, enzyme activity is measured at various concentrations (12 concentrations of compound spaced by 3× dilution intervals). […] Percent inhibition (Pinh) is determined using the following equation: Pinh=(PSR0%−PSRinh)/(PSR0%−PSR100%)*100 where PSRinh is the product sum ratio in the presence of inhibitor, PSR0% is the average product sum ratio in the absence of inhibitor, and PSR100% is the average product sum ratio in 100%-inhibition control samples. The IC50 values of inhibitors are determined by fitting the inhibition curves (Pinh versus inhibitor concentration) by 4 parameter sigmoidal dose-response model using XLfit 4 software (IBDS).

K562 cells = experiment: Cell viability assay (CellTiter-Blue), K562; format: cell-based; settings: Homo sapiens; K562 (does not express ITD-FLT3), 72 hours treatment
Experimental: (§7) Cell viability in the presence of varying concentrations of the above listed compounds at different time points was used to assess cytotoxicity and the effect of the compounds on cell proliferation.
Cell viability was measured by the […]-BLUE® cell viability assay from Promega (Madison, Wis.). This procedure measures the conversion of the indicator dye (resazurin) to resorufin, an indicator of cell viability. Following treatment, growth media was removed and cells were incubated with 20 μl of […]-BLUE® Reagent and growth media for 1-4 hours at 37° C. Fluorescence values were measured at 535/590 nm using a Beckman-Coulter DTX-880 microplate reader.
Cells were grown to 70% confluency, trypsinized, counted, and seeded in 96 well flat-bottom plates at a final concentration of 2.5×10^3-5×10^3 cells/well (Day 0). Cells were allowed to incubate in growth media for 24 hours to allow for maximum adhesion. Treatment with the test agents or standard agents began on Day 1 and continued for 72 hours. At the 72-hour time point, treatment containing media was removed. Viable cell numbers were quantified by the […]-BLUE® cell viability assay as described above. Experiments were repeated at least twice with the same concentrations to determine growth inhibitory activity. Results from these studies were used to calculate an IC50 value (concentration of drug that inhibits cell growth by 50 percent of control) for each compound.
(§8) For single agent and combination studies, data from each experiment was collected and expressed as % Cell Growth using the following calculation: % Cell Growth=(ftest/fvehicle)×100 Where ftest is the fluorescence of the tested sample, and fvehicle is the fluorescence of the vehicle in which the drug is dissolved. Dose response graphs and IC50 values were generated using Prism 4 software (GraphPad) using the following equation: Y=(Top−Bottom)/(1+10^((logIC50-X)[…])) Where X is the logarithm of the concentration and Y is the response. Y starts at the Bottom and goes to the Top with a sigmoid shape.
(§9) The experiments also evaluated the selectivity of the compounds for inhibiting growth of cancer cells carrying a mutation in the Flt3 gene. The MV411 cell line expresses the mutant allele of Flt3 with internal tandem duplications (ITD) of the gene. See Quentmeier et al., “FLT3 Mutations in Acute Myeloid Leukemia Cell Lines,” Leukemia 17(1), 2003, 120-124. […] See Grafone et al., “Monitoring of FLT3 Phosphorylation Status and Its Response to Drugs By Flow Cytometry in AML Blast Cells,” Hematol Oncol. 26(3), 2008, 159-166.

ROCK2 = ROCK2 (Homo sapiens (Human), UniProt O75116); experiment: ROCK2 kinase inhibition assay (peptide phosphorylation, LabChip 3000); format: biochemical; settings: 7 μM ATP, 2.5 nM ROCK2, 3 hours at 25° C.
Experimental: as §1, §2, §3, §4, §5, §6
Substrate and product peptides present in each sample are separated electrophoretically using the LABCHIP® 3000 capillary electrophoresis instrument. […] Change in the relative fluorescence intensity of the substrate and product peaks is the parameter measured reflecting enzyme activity. Capillary electrophoregramms (RDA acquisition files) are analyzed using HTS Well Analyzer software (Caliper Life Sciences, Hopkinton, Mass.). The kinase activity in each sample is determined as the product to sum ratio (PSR): P/(S+P), where P is the peak height of the product peptide and S is the peak height of the substrate peptide. For each compound, enzyme activity is measured at various concentrations (12 concentrations of compound spaced by 3× dilution intervals). Negative control samples (0%-inhibition in the absence of inhibitor) and positive control samples (100%-inhibition in the presence of 20 mM EDTA) are assembled in replicates of four and are used to calculate %-inhibition values for each compound at each concentration. Percent inhibition (Pinh) is determined using the following equation: Pinh=(PSR0%−PSRinh)/(PSR0%−PSR100%)*100 where PSRinh is the product sum ratio in the presence of inhibitor, PSR0% is the average product sum ratio in the absence of inhibitor, and PSR100% is the average product sum ratio in 100%-inhibition control samples. The IC50 values of inhibitors are determined by fitting the inhibition curves (Pinh versus inhibitor concentration) by 4 parameter sigmoidal dose-response model using XLfit 4 software (IBDS).

MV411 cells = experiment: Cell viability assay (CellTiter-Blue), MV411; format: cell-based; settings: for FLT3-ITD+ Selectivity (K562/MV411): ratio of K562 to MV411 IC50; for IC50: Homo sapiens, MV4-11, MV411 (ITD-FLT3+), 72 hours treatment
Experimental: as §7
This procedure measures the conversion of the indicator dye (resazurin) to resorufin, an indicator of cell viability. […] Fluorescence values were measured at 535/590 nm using a Beckman-Coulter DTX-880 microplate reader.
Cells were grown to 70% confluency, trypsinized, counted, and seeded in 96 well flat-bottom plates at a final concentration of 2.5×10^3-5×10^3 cells/well (Day 0). Cells were allowed to incubate in growth media for 24 hours to allow for maximum adhesion. Treatment with the test agents or standard agents began on Day 1 and continued for 72 hours. At the 72-hour time point, treatment containing media was removed. […] Experiments were repeated at least twice with the same concentrations to determine growth inhibitory activity.
as §8, §9

Chain of ROCK2 (O75116 whole entry): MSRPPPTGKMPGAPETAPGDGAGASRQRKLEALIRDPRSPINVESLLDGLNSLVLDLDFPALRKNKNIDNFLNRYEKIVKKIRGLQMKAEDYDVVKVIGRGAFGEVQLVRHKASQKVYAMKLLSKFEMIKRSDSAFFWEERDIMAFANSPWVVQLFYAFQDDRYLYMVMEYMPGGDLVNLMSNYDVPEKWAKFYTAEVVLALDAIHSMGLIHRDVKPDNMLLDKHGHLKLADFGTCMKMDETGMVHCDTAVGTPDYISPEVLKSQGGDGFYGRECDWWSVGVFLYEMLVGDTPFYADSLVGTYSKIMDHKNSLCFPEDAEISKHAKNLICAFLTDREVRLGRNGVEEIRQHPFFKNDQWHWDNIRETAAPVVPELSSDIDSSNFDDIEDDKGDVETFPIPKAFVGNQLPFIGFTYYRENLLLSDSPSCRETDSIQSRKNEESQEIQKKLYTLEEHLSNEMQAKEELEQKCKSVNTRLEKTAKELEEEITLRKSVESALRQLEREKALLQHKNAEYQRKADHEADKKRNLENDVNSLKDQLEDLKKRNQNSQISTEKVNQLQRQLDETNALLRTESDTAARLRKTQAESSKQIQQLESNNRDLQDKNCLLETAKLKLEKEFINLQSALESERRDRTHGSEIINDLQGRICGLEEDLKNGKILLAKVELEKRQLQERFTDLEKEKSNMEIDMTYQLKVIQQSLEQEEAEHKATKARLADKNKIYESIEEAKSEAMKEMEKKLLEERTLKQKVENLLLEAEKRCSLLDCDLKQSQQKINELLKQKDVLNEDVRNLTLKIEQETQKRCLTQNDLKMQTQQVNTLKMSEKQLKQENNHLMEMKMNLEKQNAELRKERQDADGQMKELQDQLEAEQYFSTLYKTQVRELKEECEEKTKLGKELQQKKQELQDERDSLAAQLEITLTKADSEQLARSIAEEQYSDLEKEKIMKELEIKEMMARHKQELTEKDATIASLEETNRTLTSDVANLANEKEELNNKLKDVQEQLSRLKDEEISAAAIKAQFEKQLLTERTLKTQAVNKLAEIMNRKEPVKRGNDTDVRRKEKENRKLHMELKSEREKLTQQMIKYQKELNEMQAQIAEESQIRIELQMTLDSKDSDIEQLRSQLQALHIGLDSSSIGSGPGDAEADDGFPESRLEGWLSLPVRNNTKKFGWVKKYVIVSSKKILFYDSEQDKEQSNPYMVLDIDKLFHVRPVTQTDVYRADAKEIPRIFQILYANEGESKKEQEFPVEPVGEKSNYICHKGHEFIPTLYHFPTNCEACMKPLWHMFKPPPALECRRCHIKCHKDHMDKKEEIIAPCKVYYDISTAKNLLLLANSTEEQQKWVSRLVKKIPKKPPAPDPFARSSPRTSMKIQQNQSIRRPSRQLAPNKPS
Chain of ROCK1 (Q13464 whole entry): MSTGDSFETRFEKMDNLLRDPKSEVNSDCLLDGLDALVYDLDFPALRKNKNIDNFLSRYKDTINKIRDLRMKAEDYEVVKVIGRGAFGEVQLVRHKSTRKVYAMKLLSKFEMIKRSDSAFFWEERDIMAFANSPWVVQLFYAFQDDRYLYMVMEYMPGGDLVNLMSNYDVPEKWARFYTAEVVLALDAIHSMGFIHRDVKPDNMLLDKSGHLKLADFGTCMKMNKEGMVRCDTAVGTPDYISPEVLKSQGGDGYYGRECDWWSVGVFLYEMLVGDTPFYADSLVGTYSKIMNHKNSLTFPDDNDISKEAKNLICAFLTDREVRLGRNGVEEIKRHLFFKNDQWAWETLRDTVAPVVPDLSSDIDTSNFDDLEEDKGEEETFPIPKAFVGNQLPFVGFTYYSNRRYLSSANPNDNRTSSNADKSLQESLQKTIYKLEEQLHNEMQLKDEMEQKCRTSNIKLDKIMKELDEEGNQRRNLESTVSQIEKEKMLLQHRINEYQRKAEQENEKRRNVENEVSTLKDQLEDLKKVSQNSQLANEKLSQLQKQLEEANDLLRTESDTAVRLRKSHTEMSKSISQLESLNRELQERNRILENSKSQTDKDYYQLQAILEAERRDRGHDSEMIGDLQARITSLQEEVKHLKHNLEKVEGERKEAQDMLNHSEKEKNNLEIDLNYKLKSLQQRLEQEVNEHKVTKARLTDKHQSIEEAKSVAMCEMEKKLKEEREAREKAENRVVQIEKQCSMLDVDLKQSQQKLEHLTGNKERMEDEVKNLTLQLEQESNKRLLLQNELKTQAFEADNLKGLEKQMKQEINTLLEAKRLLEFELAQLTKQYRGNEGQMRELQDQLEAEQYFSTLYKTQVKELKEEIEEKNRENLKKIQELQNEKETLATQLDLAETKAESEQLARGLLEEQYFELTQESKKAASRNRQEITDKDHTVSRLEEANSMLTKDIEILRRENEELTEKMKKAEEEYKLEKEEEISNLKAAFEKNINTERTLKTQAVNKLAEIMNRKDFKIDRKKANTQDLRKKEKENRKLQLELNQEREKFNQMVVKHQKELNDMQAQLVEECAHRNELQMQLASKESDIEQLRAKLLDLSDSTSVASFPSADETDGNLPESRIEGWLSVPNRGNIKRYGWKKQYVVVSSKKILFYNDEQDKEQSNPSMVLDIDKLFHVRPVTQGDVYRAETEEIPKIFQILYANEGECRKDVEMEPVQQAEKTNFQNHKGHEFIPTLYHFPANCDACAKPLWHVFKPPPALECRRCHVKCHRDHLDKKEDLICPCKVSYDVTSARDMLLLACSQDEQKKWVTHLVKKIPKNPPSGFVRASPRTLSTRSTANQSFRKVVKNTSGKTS

IC50 (ROCK1) | IC50 (K562 cells) | IC50 (ROCK2) | IC50 (MV411 cells) | Structure (SMILES) | FLT3-ITD+ Selectivity (K562/MV411) (MV411 cells)
207 nM | > 100 µM | 27.6 nM |  | O=C(N[C@H](CO)c1cccc(F)c1)c1cc(-c2ccncc2)[nH]n1 [Compound 1] | >1
65.1 nM | > 100 µM | 17.4 nM | 7.1 µM | COc1cccc(CNC(=O)c2cc3ccc(-c4ccncc4)nc3s2)c1 [Compound 39] | >14
164 nM |  | 17 nM | 14.8 µM | COc1cccc(CNC(=O)c2cc3ccc(-c4cn[nH]c4)nc3s2)c1 [Compound 40] | >7
 | 31 µM | 4.5 nM | 1.6 µM | COc1cccc([C@@H](C)NC(=O)c2cc3ccc(-c4cn[nH]c4)nc3s2)c1 [Compound 58] | 19
 | 25 µM | 20 nM | 4.5 µM | COc1cccc(CN(CCN(C)C)C(=O)c2cc3ccc(-c4cn[nH]c4)nc3s2)c1 [Compound 59] | 6
 | 65 µM |  | 12.9 µM | CC(C)NC(=O)c1cccc(CNC(=O)c2cc3ccc(-c4cn[nH]c4)nc3s2)c1 [Compound 60] | 5
 | 54 µM | 7.1 nM | 8.2 µM | COc1cccc([C@@H](CO)NC(=O)c2cc3ccc(-c4cn[nH]c4)nc3s2)c1 [Compound 61] | 7
 |  | 29.2 nM |  | C[C@@H](NC(=O)c1cc(-c2ccncc2)n[nH]1)c1cccc(F)c1 [Compound 64] | 
 |  | 9.8 nM |  | C[C@@H](NC(=O)c1cc(-c2ccncc2)n[nH]1)c1cccc(Cl)c1 [Compound 66] | 
 |  | 10.1 nM |  | O=C(N[C@H](CO)c1cccc(Cl)c1)c1cc(-c2ccncc2)n[nH]1 [Compound 67] | 
 |  | 509 nM |  | O=C(N[C@H](CO)c1ccccc1)c1cc(-c2ccncc2)n[nH]1 [Compound 68] | 
